Tested on: patient
Test: Mean PAP measurements of a patient before and after taking medication (Example 1, medication modification)
Assay type: in vivo
From the text: In accordance with the present disclosure, an exemplary embodiment is as follows. A patient implanted with CARDIOMEMS, instead of simply providing a single reading each day, provides a reading twice a week (or daily) via the following protocol: First, the patient wakes up in the morning and takes a PAP reading (prior to any medication ingestion). Immediately thereafter, the patient takes all medications, which include HF medications including diuretic(s). A timer goes off in the bed-side monitor (patient home electronics unit), and about sixty minutes later, the patient takes another PAP recording. As noted elsewhere throughout this disclosure, the timing between readings is variable.
The protocol based recordings are marked with a unique identifier and transmitted to a database (e.g., Merlin.net database). The protocol based PAP recordings are then used to determine the diuretic response profile of the patient. Specifically, the response profile is determined using PAP measurement data-points at time […] (pre medication) and time (t2) (“x” minutes after medication) and the time constant of the specific diuretic via, for example, a polynomial regression fit. For example, the time constant of furosemide is shorter than the longer acting thiazide diuretic.
This example examined the characterization/determination of medication dosage and temporal response in a patient given different kinds of medication. […] The mean PAP measurement of the patient at time (t1) was about 35 mmHg. […].

In the case of NS(=O)(=O)c1cc(C(=O)O)c(NCc2ccco2)cc1Cl [furosemide], the “average PAP measurement at time (t2)” value (week 1, 80 mg furosemide, about 1 hour after medication (FIG. 6A)) is reported as “about 19 mmHg”, the “mean PAP measurement at time (t3)” value (week 1, 80 mg furosemide, about 2 hours after medication (FIG. 6A)) is reported as “about 21 mmHg” and the “mean PAP measurement at time (t1)” value (week 1, 80 mg furosemide, t1 prior to medication (FIG. 6A)) is reported as “about 35 mmHg”. For the same compound, the “mean PAP measurements at time (t2) and time (t3) compared with week 1” value (week 2, 80 mg furosemide (FIG. 6B)) was “similar”, the “mean PAP measurement after medication” value (week 2, 80 mg furosemide, after medication (FIG. 6B)) was “about 19 mmHg” and the “mean PAP measurement at time (t1)” value (week 2, 80 mg furosemide, t1 prior to medication (FIG. 6B)) was “about 31 mmHg”. The “diuretic profile in the patient” value (week 10, 80 mg furosemide (FIG. 6C)) was “early signs of developing diuretic resistance”, the “mean PAP measurement at time (t1)” value (week 10, 80 mg furosemide, prior to ingestion of the medication (FIG. 6C)) was “about 31 mmHg” and the “mean PAP measurement after medication” value (week 10, 80 mg furosemide, time (t2) and time (t3) (FIG. 6C)) was “about 27 mmHg”.
